According to patent EP4778922A1, “BICYCLIC COMPOUND, AND PREPARATION METHOD THEREFOR AND PHARMACEUTICAL USE THEREOF” (Shanghai Jeyou Pharmaceutical Co., Ltd., priority 2023, dated 2025):

Columns and labels:
22RV1 cells = test: Cell proliferation inhibition assay in 22RV1 cells (CellTiter-Glo, 7 days); type: cell-based, human; conditions: Homo sapiens
Procedure, shortened: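 LNCaP and 22RV1 human prostate cancer cells, 3000 per well, exposed to graded compound for 7 days at 37°C, 5% CO2; LNCaP got 0.2 nM DHT 1 h after compound. Viability by CellTiter-Glo luminescence; IC50 from four-parameter variable-slope fit.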

[1] = Mouse pharmacokinetic test; type: in vivo, ICR mice; conditions: plasma, po, 30 mg/kg, PO-30mpk; for Tmax: read-out: Tmax
Procedure, shortened: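 Male naive ICR mice (25–30 g, n=3 per route) received a single intravenous or oral dose, with feeding resumed 4 h post-dose. Blood was centrifuged at 4°C, and plasma was stored at -80°C until analysis.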

LNCaP cells = test: Cell proliferation inhibition assay in LNCaP cells (0.2 nM DHT, CellTiter-Glo, 7 days); type: cell-based, human; conditions: Homo sapiens, 168 h
Experimental: • 1. The human prostate cancer cell lines 22RV1 and LNCaP were purchased from ATCC. […] The cell concentration was adjusted to an appropriate concentration (determined based on the results of cell density optimization experiments), and the cells were seeded into a 96-well plate. A 100 µL cell suspension was added, resulting in 3000 cells per well. […] On the second day, for 22Rv1 cells, test compounds at different concentrations were added, and the cells were incubated at 37°C in a 5% CO2 incubator for 7 days; for LNCaP cells, test compounds at different concentrations were added first, and after 1 hour of treatment, 0.2 nM DHT was added. The cells were then incubated at 37°C in a 5% CO2 incubator for 7 days. • 4. After the incubation period, a volume of CellTiter-Glo detection reagent equal to the volume of the culture medium was added to each well. The plate was shaken and mixed thoroughly for 5 minutes, then incubated at room temperature for 10 minutes. Readings were taken using a PerkinElmer EnVision microplate reader. • 5.
The IC50 curve was fitted and the IC50 value was calculated using the software GraphPad Prism 8 with the calculation formula XY-analysis/Nonlinear regression (curve fit)/Dose response-Inhibition/log (inhibitor) vs. response-Variable slope (four parameters).

Compound: CC(C)(c1ccc(-c2ccc(OCc3ccnc(N=S4(=O)CCOCC4)n3)cn2)cc1)c1cc(Cl)c(OCCCl)c(C#N)c1 [Compound 62]
- IC50 (22RV1 cells; 22Rv1, 168 h): 260 nM
- AUC(0-inf) [1]: 188 µg·h/mL
- Cmax [1]: 19900 ng/mL
- half-life [1]: 2 h
- Tmax [1]: 2 h
- IC50 (LNCaP cells; LNCaP): 830 nM

Compound: Cc1cc(OCc2ccnc(P(C)(C)=O)n2)ccc1-c1ccc(C(C)(C)c2cc(Cl)c(OCCCl)c(C#N)c2)cc1 [Compound 119]
- IC50 (22RV1 cells; 22Rv1, 168 h): 740 nM
- AUC(0-inf) [1]: 333 µg·h/mL
- Cmax [1]: 17400 ng/mL
- half-life [1]: 11.8 h
- Tmax [1]: 4.7 h
- IC50 (LNCaP cells; LNCaP): 940 nM

Compound: CC(C)(c1ccc(-c2cnc(OCc3ccnc(N=S4(=O)CCOCC4)n3)cn2)cc1)c1cc(Cl)c(OCCCl)c(C#N)c1 [Compound 206]
- IC50 (22RV1 cells; 22Rv1, 168 h): 410 nM
- AUC(0-inf) [1]: 236 µg·h/mL
- Cmax [1]: 32100 ng/mL
- half-life [1]: 1.7 h
- Tmax [1]: 2 h
- IC50 (LNCaP cells; LNCaP): 980 nM

Compound: CC(C)(c1ccc(-c2ccc(/C=C/c3cnc(P(C)(C)=O)nc3)cc2)cc1)c1cc(Cl)c(OCCCl)c(C#N)c1 [Compound 234]
- IC50 (22RV1 cells; 22Rv1, 168 h): 350 nM
- AUC(0-inf) [1]: 307 µg·h/mL
- Cmax [1]: 13400 ng/mL
- half-life [1]: 11 h
- Tmax [1]: 7 h
- IC50 (LNCaP cells; LNCaP): 580 nM

Compound: CC(C)(c1ccc(-c2ccc(OCC3CCC(CN4CC5(COC5)C4)CC3)cc2)cc1)c1cc(Cl)c(OCCCl)c(C#N)c1 (stereo not shown) [Compound 333]
- IC50 (22RV1 cells; 168 h): 320 nM
- IC50 (LNCaP cells): 680 nM

Compound: CC(C)(c1ccc(-c2cnc(OCc3ccnc(N4CC(S(C)(=O)=O)C4)n3)nc2)cc1)c1cc(Cl)c(OCCCl)c(C#N)c1 [Compound 342]
- IC50 (22RV1 cells; 168 h): 860 nM
- IC50 (LNCaP cells): 500 nM

Compound: CC(C)(c1ccc(-c2ccc(OCc3ccnc(N4CC(S(=N)(=O)C5CC5)C4)n3)nc2)cc1)c1cc(Cl)c(OCCCl)c(C#N)c1 (stereo not shown) [Compound 356]
- IC50 (22RV1 cells; 168 h): 790 nM
- IC50 (LNCaP cells): 410 nM

Compound: CC(C)(c1ccc(-c2ccc(OCc3ccnc(N4CC(S(C)(=N)=O)C4)n3)nc2)cc1)c1cc(Cl)c(OCCCl)c(C#N)c1 (stereo not shown) [Compound 357]
- IC50 (22RV1 cells; 22Rv1, 168 h): 830 nM
- IC50 (LNCaP cells; LNCaP): 440 nM

Compound: CC(C)(c1ccc(-c2ccc(OCc3nccnc3P(C)(C)=O)cc2)cc1)c1cc(Cl)c(OCCCl)c(C#N)c1 [Compound 358]
- IC50 (22RV1 cells; 168 h): 570 nM
- IC50 (LNCaP cells): 240 nM

Compound: CC(C)(c1ccc(-c2ccc(OCc3ccc(-c4ccc(P(C)(C)=O)nc4)cc3)cc2)cc1)c1cc(Cl)c(OCCCl)c(C#N)c1 [Compound 359]
- IC50 (22RV1 cells; 168 h): 230 nM
- IC50 (LNCaP cells): 74 nM

Compound: CC(C)(c1ccc(-c2cnc(OCc3ccc(-c4cnc(P(C)(C)=O)nc4)cc3)cn2)cc1)c1cc(Cl)c(OCCCl)c(C#N)c1 [Compound 361]
- IC50 (22RV1 cells; 168 h): 250 nM
- IC50 (LNCaP cells): 400 nM

Compound: CC1(CO)CN(c2nccc(COc3cnc(-c4ccc(C(C)(C)c5cc(Cl)c(OCCCl)c(C#N)c5)cc4)cn3)n2)C1 [Compound 365]
- IC50 (22RV1 cells; 168 h): 930 nM
- IC50 (LNCaP cells): 550 nM

Compound: CC(C)(c1ccc(-c2cnc(OCc3ccc(-c4cnc(P(C)(C)=O)nc4)nc3)cn2)cc1)c1cc(Cl)c(OCCCl)c(C#N)c1 [Compound 373]
- IC50 (22RV1 cells; 168 h): 640 nM
- IC50 (LNCaP cells): 250 nM

Compound: CC(C)(c1ccc(-c2cnc(OCc3ccnc(N4CC5(CCS(=N)(=O)CC5)C4)n3)cn2)cc1)c1cc(Cl)c(OCCCl)c(C#N)c1 [Compound 377]
- IC50 (22RV1 cells; 168 h): 380 nM
- IC50 (LNCaP cells): 100 nM

Compound: CC(C)(c1ccc(-c2ccc(OCc3ccc(-c4cnc(N5CC(S(C)(=O)=O)C5)nc4)cc3)c(C#N)c2)cc1)c1cc(Cl)c(OCCCl)c(C#N)c1 [Compound 382]
- IC50 (22RV1 cells; 168 h): 860 nM
- IC50 (LNCaP cells): 410 nM

Compound: CC(C)(c1ccc(-c2cnc(COc3ccnc(P(C)(C)=O)n3)nc2)cc1)c1cc(Cl)c(OCCCl)c(C#N)c1 [Compound 385]
- IC50 (22RV1 cells; 168 h): 570 nM
- IC50 (LNCaP cells): 220 nM

Compound: CC(C)(c1ccc(-c2cnc(OCc3ccnc(N4CC(N=S(C)(C)=O)C4)n3)cn2)cc1)c1cc(Cl)c(OCCCl)c(C#N)c1 [Compound 388]
- IC50 (22RV1 cells; 168 h): 370 nM
- IC50 (LNCaP cells): 530 nM

Compound: CC(C)(c1ccc(-c2ccc(OCc3ccc(-c4ccc(P(C)(C)=O)nn4)cc3)cc2)cc1)c1cc(Cl)c(OCCCl)c(C#N)c1 [Compound 394]
- IC50 (22RV1 cells; 168 h): 110 nM
- IC50 (LNCaP cells): 76 nM

Compound: CC(C)(c1ccc(-c2ccc(OCc3ccc(-c4cnc(P(C)(C)=O)nc4)cn3)nc2)cc1)c1cc(Cl)c(OCCCl)c(C#N)c1 [Compound 397]
- IC50 (22RV1 cells; 168 h): 950 nM
- IC50 (LNCaP cells): 110 nM

Compound: CC(C)(c1ccc(-c2ccc(OCc3ccc(-c4cnc(P(C)(C)=O)nc4)nc3)nc2)cc1)c1cc(Cl)c(OCCCl)c(C#N)c1 [Compound 398]
- IC50 (22RV1 cells; 168 h): 510 nM
- IC50 (LNCaP cells): 120 nM

Compound: CC(C)(c1ccc(-c2cnc(OCc3cnc(-c4cnc(P(C)(C)=O)nc4)cn3)nc2)cc1)c1cc(Cl)c(OCCCl)c(C#N)c1 [Compound 402]
- IC50 (22RV1 cells; 168 h): 660 nM
- IC50 (LNCaP cells): 99 nM

Compound: CC(C)(c1ccc(-c2ccc(OCc3cnc(-c4cnc(P(C)(C)=O)nc4)cn3)nc2)cc1)c1cc(Cl)c(OCCCl)c(C#N)c1 [Compound 410]
- IC50 (22RV1 cells; 168 h): 880 nM
- IC50 (LNCaP cells): 27000 nM

Compound: CN=S(C)(=O)C1CN(c2nccc(COc3ccc(-c4ccc(C(C)(C)c5cc(Cl)c(OCCCl)c(C#N)c5)cc4)nc3)n2)C1 (stereo not shown) [Compound 414]
- IC50 (22RV1 cells; 168 h): 940 nM
- IC50 (LNCaP cells): 360 nM

Compound: CC(C)(c1ccc(-c2ccc(OCc3ccc(-c4cnc(P(C)(C)=O)cn4)cc3)cc2)cc1)c1cc(Cl)c(OCCCl)c(C#N)c1 [Compound 419]
- IC50 (22RV1 cells; 168 h): 130 nM
- IC50 (LNCaP cells): 130 nM

Compound: CC(C)(c1ccc(-c2cnc(OCC34CC(c5cnc(P(C)(C)=O)nc5)(C3)C4)nc2)cc1)c1cc(Cl)c(OCCCl)c(C#N)c1 [Compound 421]
- IC50 (22RV1 cells; 168 h): 350 nM
- IC50 (LNCaP cells): 600 nM

Compound: CC(C)(c1ccc(-c2ccc(OCc3ccnc(N4CC5(C4)CS(=N)(=O)C5)n3)cn2)cc1)c1cc(Cl)c(OCCCl)c(C#N)c1 [Compound 422]
- IC50 (22RV1 cells; 168 h): 690 nM
- IC50 (LNCaP cells): 530 nM

Compound: CC(C)(c1ccc(-c2ncc(OCc3ccc(-c4cnc(P(C)(C)=O)cn4)cc3)cn2)cc1)c1cc(Cl)c(OCCCl)c(C#N)c1 [Compound 424]
- IC50 (22RV1 cells; 168 h): 660 nM
- IC50 (LNCaP cells): 310 nM

Compound: CC(C)(c1ccc(-c2cnc(COc3ccnc(P(C)(C)=O)n3)cn2)cc1)c1cc(Cl)c(OCCCl)c(C#N)c1 [Compound 432]
- IC50 (22RV1 cells; 168 h): 840 nM
- IC50 (LNCaP cells): 660 nM

Compound: CC(C)(c1ccc(-c2ccc(OCc3ccnc(N=S4(=O)CCN(CC(O)c5ccccc5)CC4)n3)cc2)cc1)c1cc(Cl)c(OCCCl)c(C#N)c1 (stereo not shown) [Compound 435]
- IC50 (22RV1 cells; 168 h): 180 nM
- IC50 (LNCaP cells): 650 nM

Compound: CC(=O)c1nccc(COc2ccc(-c3ccc(C(C)(C)c4cc(Cl)c(OCCCl)c(C#N)c4)cc3)cc2)n1 [Compound 440]
- IC50 (22RV1 cells; 168 h): 990 nM
- IC50 (LNCaP cells): 570 nM

Compound: CC(C)(c1ccc(-c2ccc3cc(OCc4ccnc(P(C)(C)=O)n4)ccc3c2)cc1)c1cc(Cl)c(OCCCl)c(C#N)c1 [Compound 442]
- IC50 (22RV1 cells; 168 h): 380 nM
- IC50 (LNCaP cells): 160 nM

Compound: CC(C)(c1ccc(-c2cnc(OCc3ccnc(N4CCC5(CC4)CS(=N)(=O)C5)n3)cn2)cc1)c1cc(Cl)c(OCCCl)c(C#N)c1 [Compound 444]
- IC50 (22RV1 cells; 168 h): 120 nM
- IC50 (LNCaP cells): 130 nM

Compound: CC(C)(c1ccc(-c2ccc(OCC34CC(c5cnc(P(C)(C)=O)nc5)(C3)C4)nc2)cc1)c1cc(Cl)c(OCCCl)c(C#N)c1 [Compound 445]
- IC50 (22RV1 cells; 168 h): 130 nM
- IC50 (LNCaP cells): 80 nM

Compound: CC(C)(c1cnc(-c2ccc(OCc3ccnc(N4CC(S(C)(=O)=O)C4)n3)cc2)nc1)c1cc(Cl)c(OCCCl)c(C#N)c1 [Compound 446]
- IC50 (22RV1 cells; 168 h): 310 nM
- IC50 (LNCaP cells): 140 nM

Compound: CNS(=O)(=O)C1CN(c2nccc(COc3cnc(-c4ccc(C(C)(C)c5cc(Cl)c(OCCCl)c(C#N)c5)cc4)cn3)n2)C1 [Compound 462]
- IC50 (22RV1 cells; 168 h): 160 nM
- IC50 (LNCaP cells): 42 nM

Compound: CC(C)(c1ccc(-c2ccc(OCc3ccnc(N4C5CCC4CC(S(C)(=O)=O)C5)n3)cc2)cc1)c1cc(Cl)c(OCCCl)c(C#N)c1 (stereo not shown) [Compound 463]
- IC50 (22RV1 cells; 168 h): 88 nM
- IC50 (LNCaP cells): 93 nM

Compound: CC(C)(c1cc(Cl)c(OCCCl)c(C#N)c1)c1ccc(-c2ccc(OCc3ccnc(N4CC(S(C)(=O)=O)C4)n3)cn2)cn1 [Compound 471]
- IC50 (22RV1 cells; 168 h): 950 nM
- IC50 (LNCaP cells): 430 nM

Compound: CC(C)(c1cc(Cl)c(OCCCl)c(C#N)c1)c1ccc(-c2ccc(OCc3ccnc(N4CC(S(C)(=O)=O)C4)n3)cc2)cn1 [Compound 476]
- IC50 (22RV1 cells; 168 h): 170 nM
- IC50 (LNCaP cells): 44 nM

Compound: CC(C)(c1cc(Cl)c(OCCCl)c(C#N)c1)c1ccc(-c2ccc(OCc3ccnc(N4CC(S(C)(=N)=O)C4)n3)cc2)cn1 (stereo not shown) [Compound 477]
- IC50 (22RV1 cells; 168 h): 690 nM
- IC50 (LNCaP cells): 240 nM
